Key:
feline calicivirus (FCV) = assay: Photodynamic inactivation of FCV in water with photosensitizer and light; details: for log reduction in FCV: 3 minute exposure; for efficacy against FCV: photodynamic treatment, under the conditions tested (10, 25, 50 μM PS; light exposure)
Description: (§1) The inactivation of HuNoV surrogates (e.g., feline calicivirus (FCV) and Tulane virus (TuV)) was studied, by exposure to light in the presence of photosensitizer dyes in water, FCV and TuV were mixed with different concentrations (10, 25, and 50 μM) of three different PS (Rose Bengal (RB), Phloxine B (Ph-B) and chlorophyllin) and then exposed to light for a period of time, e.g., 1, 3, 5, or 10 minutes. While not being limited to a mode of action, capsid integrity and/or genome integrity may be impacted by the exposure of viruses to light in the presence of the PS.
(§2) Shellfish and fresh produce are the most frequent foods implicated in human norovirus (HuNoV) outbreaks in the US. Decontamination of virus-contaminated waters used in depuration of oysters, clams or mussels, and in post-harvest washing of fresh produce, is a mitigation strategy for this human biothreat risk. […] Although the PDT has been studied extensively for bacterial inactivation, studies on its use for viral inactivation in food and water are scarce. Inactivation of >4 log TCID50 of two HuNoV surrogates (feline calicivirus (FCV) and Tulane virus (TuV)) in water was observed upon exposure to LED-blue light for 3 to 10 min using Rose Bengal (RB) or Phloxine-B (Ph-B) as photosensitizers. The virucidal effect of PDT may depend on the type of treated virus, the light source, the type and concentration of the photosensitizer (PS), and the operational parameters such as the distance between the light source and treated object and/or exposure time.

Tulane virus (TuV) = assay: Photodynamic inactivation of TuV in water with photosensitizer and light; details: for efficacy against TuV: photodynamic treatment, under the conditions tested (10, 25, 50 μM PS; light exposure)
Description: as §1, §2

TGEV = assay: Virus added to light-preexposed Ph-B solution, cell culture titration; design: species or system transmissible gastroenteritis virus; details: 50 μM Phloxin-B pre-exposed to blue LED light 1-10 min; 1 to 5 min contact
Description: (§3) Several 50 μM stocks of Phloxin-B solution are prepared (500 μL each). Each stock is pre-exposed to the blue LED light for specific times (e.g., 1, 2, 3, 5, and 10 min). Immediately after light exposure, 50 μL of the tested virus (FCV, TuV, and TGEV) is added to the light-preexposed Ph-B solution for about 1 to 5 min contact times before titrating the surviving virus using a cell culture assay. A >3 log reduction in the virus titer is observed.

FCV = assay: as above; design: species or system feline calicivirus; details: 50 μM Phloxin-B pre-exposed to blue LED light 1-10 min; 1 to 5 min contact
Description: as §3

[1] = tested on: Gram positive or Gram negative bacterial suspension, e.g., E. coli, Salmonella enterica, Staphylococcus aureus, or Bacillus subtilis; assay: Decontamination of lettuce leaves and stainless-steel discs spiked with bacteria, blue LED light, agar plate count; details: 50 μM Phloxin-B, 1 cm distance, blue LED 1, 3, 5, and 10 minutes; lettuce leaf or stainless-steel surface
Description: Romaine lettuce leaves are cut into small squares (2×2 cm) and then are disinfected using 300 ppm sodium hypochlorite followed by rinsing three times with sterilized distilled water. Sterile stainless-steel discs are also used as a model for surface decontamination. Each sample is spiked with 50 μL of a Gram positive or Gram negative bacterial suspension, e.g., E. coli, Salmonella enterica, Staphylococcus aureus, or Bacillus subtilis, then dried for 30 minutes. 100 μL of a 50 μM Phloxin-B solution is then added to each spiked leaf or stainless-steel surface. The samples are exposed at a 1 cm distance to the blue LED light source for 1, 3, 5, and 10 minutes. After each exposure time any surviving bacterial cells are recovered in 500 μL of recovery buffer followed by vortexing for 0.5 to 1 minute. The surviving bacterial cells are enumerated using Agar plate count technique. A ≥3 log reduction in the bacterial cell counts is observed.

TuV = assay: Virus added to light-preexposed Ph-B solution, cell culture titration; design: species or system Tulane virus; details: 50 μM Phloxin-B pre-exposed to blue LED light 1-10 min; 1 to 5 min contact
Description: as §3

Row | Compound | log reduction in FCV (feline calicivirus (FCV); 25 μM RB) | efficacy against FCV (feline calicivirus (FCV)) | log reduction in TuV (Tulane virus (TuV); 10 minute exposure, 50 μM RB) | efficacy against TuV (Tulane virus (TuV)) | log reduction in the virus titer (TGEV) (TGEV) | log reduction in the virus titer (FCV) (FCV) | log reduction in the bacterial cell counts [1] | log reduction in FCV (feline calicivirus (FCV); 50 μM Ph-B) | log reduction in TuV (Tulane virus (TuV); 5 minute exposure, 50 μM Ph-B) | log reduction in the virus titer (TuV) (TuV)
1 | O=C1OC2(c3cc(I)c(O)c(I)c3Oc3c2cc(I)c(O)c3I)c2c(Cl)c(Cl)c(Cl)c(Cl)c21 [RB, Rose Bengal] | 4 log | high efficacy | 4 log | high efficacy | – | – | – | – | – | –
2 | O=C([O-])c1c(Cl)c(Cl)c(Cl)c(Cl)c1-c1c2cc(Br)c(=O)c(Br)c-2oc2c(Br)c([O-])c(Br)cc12.[Na+].[Na+] [Ph-B, Phloxine B] | – | high efficacy | – | high efficacy | > 3 log | > 3 log | ≥ 3 log | 4 log | 4 log | > 3 log
3 | chlorophyllin | – | low efficacy | – | – | – | – | – | – | – | –
